Activity calls are given as the source filed them.
Legend:
Paired box protein Pax-8 = Paired box protein Pax-8 (Homo sapiens, UniProt Q06710); assay: inhibitors of PAX8-driven TPO luciferase reporter, dose response, RMG-I cells, cherry-pick (AID 687027); assay type: functional, cell-based;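 note: luciferase reporter driven by Pax8 target thyroperoxidase promoter measured by SteadyGlo luminescence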
[1] = cytotoxicity in OV-90 ovarian cancer cells, dose response, PAX8 inhibitor project, cell-based, plate reader, dry powder, SA8 (AID 743149); assay type: functional
[2] = HepG2 cell cytotoxicity, dose response, cytotoxicity control, cherry-picked samples (AID 1159577); assay type: functional, cell-based
[3] = cytotoxicity in OVCAR8 ovarian cancer cells, dose response, PAX8 project, cell-based, plate reader, dry powder samples (AID 743197); assay type: functional; conditions: OVCAR-8
[4] = IGROV1 ovarian cancer cell cytotoxicity, dose response, PAX8 inhibitor project, plate reader, dry powder samples (AID 743043); assay type: functional, cell-based; conditions: IGROV-1
[5] = cytotoxicity in COV434 cells, dose response, cytotoxicity control for PAX8 inhibitor project, cell-based, plate reader, dry powder, SA7 (AID 743145); assay type: functional
[6] = P. falciparum Dd2 growth inhibitors, dose response, SYBR Green, cherry-picked samples (AID 1159567); assay type: functional, cell-based
[7] = PAX2 cell-based inhibition, dose response, selectivity assay for PAX8 inhibitor project, plate reader, dry powder samples (AID 743048); assay type: functional;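 note: HEK293 cells carrying a WT1 promoter luciferase reporter driven by expressed Pax2; potency is for inhibition of Pax2 driven reporter signal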
[8] = cytotoxicity dependent on PAX8, dose response, cell-based, plate reader, dry powder (AID 743049); assay type: functional
[9] = PAX5 activity inhibitors, dose response, selectivity assay for PAX8 inhibitor project, cell-based, plate reader, dry powder samples (AID 743047); assay type: functional;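 note: HEK293 cells carrying a Pax5 driven CD19 promoter luciferase reporter; potency of inhibitors that lower reporter luminescence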
[10] = NIH:OVCAR-3 ovarian cancer cell cytotoxicity, dose response, PAX8 inhibitor project, plate reader, dry powder samples (AID 743044); assay type: functional, cell-based
[11] = RKO cell viability reduction, dose response, CellTiter-Glo luminescence (AID 1117322); assay type: functional
[12] = cytotoxicity toward Colo320 cells – cell-based, CellTiter-Glo luminescence, IC50, dose response (AID 1117334); assay type: functional; conditions: COLO 320
[13] = CellTiter-Glo luminescent dose response of DLD-1 viability loss (AID 1117352); assay type: functional
[14] = SNU-C1 cell viability reduction, dose response, CellTiter-Glo luminescence (AID 1117323); assay type: functional, cell-based
[15] = HCT116 cell viability decrease, GSK3B pretreatment – CellTiter-Glo, IC50, dose response (AID 1117339); assay type: functional; conditions: HCT-116
[16] = cytotoxicity toward HCT116 cells – cell-based, CellTiter-Glo luminescence, IC50, dose response (AID 1117332); assay type: functional; conditions: HCT-116
[17] = Concentration-dependent survival of SW480 colon cancer line, luminescence detection with CellTiter-Glo, half-maximal inhibitory concentration (AID 1117338); assay type: functional
[18] = cytotoxicity toward HT-29 cells – cell-based, CellTiter-Glo luminescence, IC50, dose response (AID 1117330); assay type: functional
[19] = A549 cell cytotoxicity, dose response, cytotoxicity control, 24 h, CellTiter-Glo luminescence, cherry-picks (AID 1053115); assay type: functional, cell-based; conditions: A549, 24 h
[20] = molecular target: G-protein coupled receptor 183 (Homo sapiens, UniProt P32249); assay: SAR confirmation of small molecule antagonists of the EBI2 receptor via a luminescent beta-arrestin assa.; assay type: functional
Sequence of G-protein coupled receptor 183 (P32249 whole entry): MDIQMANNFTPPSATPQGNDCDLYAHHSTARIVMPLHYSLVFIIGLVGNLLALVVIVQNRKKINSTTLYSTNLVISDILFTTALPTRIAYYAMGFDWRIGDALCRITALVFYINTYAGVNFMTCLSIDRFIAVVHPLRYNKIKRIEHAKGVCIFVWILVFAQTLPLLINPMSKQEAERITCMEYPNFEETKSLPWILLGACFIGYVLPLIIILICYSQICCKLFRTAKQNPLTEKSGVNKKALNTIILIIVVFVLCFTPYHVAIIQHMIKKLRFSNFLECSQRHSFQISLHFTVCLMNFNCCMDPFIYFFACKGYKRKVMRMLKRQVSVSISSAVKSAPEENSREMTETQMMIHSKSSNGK

[21] = P. falciparum Dd2 growth inhibitors, dose response, SYBR Green, dry powder samples, set 4 (AID 1159572); assay type: functional, cell-based
[22] = Orthopox viral replication plaque formation Measured in Cell-Based and Microorganism Combination System Using Imaging - 2142-05_Inhibitor_Dose_DryPowder_Activity.; assay type: functional

Sequence of Paired box protein Pax-8 (Q06710 whole entry): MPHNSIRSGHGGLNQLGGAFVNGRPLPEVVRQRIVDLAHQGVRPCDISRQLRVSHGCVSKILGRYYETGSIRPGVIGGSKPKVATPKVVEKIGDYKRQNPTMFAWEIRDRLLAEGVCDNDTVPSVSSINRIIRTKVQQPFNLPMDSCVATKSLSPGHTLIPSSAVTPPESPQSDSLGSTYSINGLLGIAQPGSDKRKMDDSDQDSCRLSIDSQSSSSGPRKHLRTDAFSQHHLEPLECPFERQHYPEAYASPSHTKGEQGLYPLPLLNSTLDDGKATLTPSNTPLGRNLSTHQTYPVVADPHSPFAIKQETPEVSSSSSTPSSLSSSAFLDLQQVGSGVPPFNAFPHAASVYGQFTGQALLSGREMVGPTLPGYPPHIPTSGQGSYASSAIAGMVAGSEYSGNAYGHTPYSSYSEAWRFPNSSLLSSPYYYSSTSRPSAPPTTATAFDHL

COc1cccc(C#Cc2ccc([C@H]3[C@@H](CO)N(C(=O)c4ccccn4)[C@H]3C#N)cc2)c1
AC50 (Paired box protein Pax-8): 2.41 µM (active)
AC50 [1]: 24.1 µM (active)
AC50 [2]: > 39 µM (inactive)
AC50 [3]: 51.4 µM (active)
AC50 [4]: 17.8 µM (active)
AC50 [5]: 18.4 µM (active)
AC50 [6]: 1.27 µM (active)
AC50 [7]: 9.59 µM (active)
AC50 [8]: 10.4 µM (active)
AC50 [9]: 7.82 µM (active)
AC50 [10]: 14.6 µM (active)

CCCCCCCC[N+](C)(C)CCCCCCCC
IC50 [11]: 2.18 µM (active)
IC50 [12]: 4.66 µM (active)
IC50 [13]: 3.22 µM (active)
IC50 [14]: 1.44 µM (active)
IC50 [15]: 3.69 µM (active)
IC50 [16]: 6.24 µM (inactive)
IC50 [17]: 3.46 µM (active)
IC50 [18]: 4 µM (active)

O=C(Nc1ccc2c(c1)[C@@H]1C[C@@H](CC(=O)N3CCc4ccccc4C3)O[C@@H](CO)[C@@H]1O2)Nc1ccccc1F
AC50 [19]: > 60 µM (inactive)

Cc1ccccc1/C=C/C(=O)N1CCN(S(=O)(=O)c2ccc(Br)cc2)CC1
IC50 [20]: 0.187 µM (active)

COc1ccc2c3c([nH]c2c1)[C@H](CO)N(C(C)=O)CC31CCN(C(=O)c2cccc(F)c2)CC1
AC50 [21]: 14.1 µM (active)

CO[C@H]1CN(C)C(=O)c2ccc(NC(=O)c3ccc(F)cc3)cc2OC[C@H](C)N(C(=O)c2ccc(F)cc2)C[C@@H]1C
AC50 [22]: 5.72 µM (active)

— ChEMBL document CHEMBL1201862, “PubChem BioAssay data set” (2004)
